Legend:
[1] = target: T1, Zinc finger and BTB domain-containing protein 44 (Homo sapiens) (UniProt Q8NCP5); conditions: SUD4, Compound concentration 1.0 uM
T1 sequence (whole entry): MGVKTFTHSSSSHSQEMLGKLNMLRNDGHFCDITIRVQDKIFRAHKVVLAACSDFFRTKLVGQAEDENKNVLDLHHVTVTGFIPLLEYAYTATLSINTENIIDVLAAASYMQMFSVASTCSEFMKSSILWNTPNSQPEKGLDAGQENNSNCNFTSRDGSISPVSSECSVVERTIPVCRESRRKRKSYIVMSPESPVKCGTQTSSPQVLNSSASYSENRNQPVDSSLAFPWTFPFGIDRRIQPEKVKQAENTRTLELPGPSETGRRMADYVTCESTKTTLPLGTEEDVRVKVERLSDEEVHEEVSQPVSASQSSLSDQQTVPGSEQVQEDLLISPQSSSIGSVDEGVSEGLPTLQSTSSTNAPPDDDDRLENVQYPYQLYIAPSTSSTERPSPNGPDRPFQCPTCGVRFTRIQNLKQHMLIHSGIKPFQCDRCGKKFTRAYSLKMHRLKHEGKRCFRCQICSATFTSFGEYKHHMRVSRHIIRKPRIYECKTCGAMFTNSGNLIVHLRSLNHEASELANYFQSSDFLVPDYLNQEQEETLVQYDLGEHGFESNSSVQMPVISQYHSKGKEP

[2] = target: Calcium/calmodulin-dependent protein kinase type IV (Homo sapiens) (UniProt Q16566); assay: CAMK4 SGC Tm panel (DSF); conditions: Compound concentration 20.0 uM
Sequence of Calcium/calmodulin-dependent protein kinase type IV (Homo sapiens) (Q16566 whole entry): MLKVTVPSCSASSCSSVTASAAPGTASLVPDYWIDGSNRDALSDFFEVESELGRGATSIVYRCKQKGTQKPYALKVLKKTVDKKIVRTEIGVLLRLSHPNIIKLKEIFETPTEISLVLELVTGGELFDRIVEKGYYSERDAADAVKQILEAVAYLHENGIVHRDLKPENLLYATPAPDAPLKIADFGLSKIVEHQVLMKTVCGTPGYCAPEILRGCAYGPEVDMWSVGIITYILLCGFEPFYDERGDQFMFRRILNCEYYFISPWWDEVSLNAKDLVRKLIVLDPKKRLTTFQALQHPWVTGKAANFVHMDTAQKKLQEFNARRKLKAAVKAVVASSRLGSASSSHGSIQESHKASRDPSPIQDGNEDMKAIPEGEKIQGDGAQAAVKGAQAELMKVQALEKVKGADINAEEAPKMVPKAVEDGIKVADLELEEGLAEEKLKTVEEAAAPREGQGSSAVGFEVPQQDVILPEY

[3] = target: Cyclin-dependent kinase 2 (Homo sapiens) (UniProt P24941); assay: CDK2 SGC Tm panel (DSF); conditions: Compound concentration 20.0 uM
[4] = target: T2, Telomere zinc finger-associated protein (Homo sapiens) (UniProt P10074); conditions: SUD4, Compound concentration 1.0 uM
T2 sequence (whole entry): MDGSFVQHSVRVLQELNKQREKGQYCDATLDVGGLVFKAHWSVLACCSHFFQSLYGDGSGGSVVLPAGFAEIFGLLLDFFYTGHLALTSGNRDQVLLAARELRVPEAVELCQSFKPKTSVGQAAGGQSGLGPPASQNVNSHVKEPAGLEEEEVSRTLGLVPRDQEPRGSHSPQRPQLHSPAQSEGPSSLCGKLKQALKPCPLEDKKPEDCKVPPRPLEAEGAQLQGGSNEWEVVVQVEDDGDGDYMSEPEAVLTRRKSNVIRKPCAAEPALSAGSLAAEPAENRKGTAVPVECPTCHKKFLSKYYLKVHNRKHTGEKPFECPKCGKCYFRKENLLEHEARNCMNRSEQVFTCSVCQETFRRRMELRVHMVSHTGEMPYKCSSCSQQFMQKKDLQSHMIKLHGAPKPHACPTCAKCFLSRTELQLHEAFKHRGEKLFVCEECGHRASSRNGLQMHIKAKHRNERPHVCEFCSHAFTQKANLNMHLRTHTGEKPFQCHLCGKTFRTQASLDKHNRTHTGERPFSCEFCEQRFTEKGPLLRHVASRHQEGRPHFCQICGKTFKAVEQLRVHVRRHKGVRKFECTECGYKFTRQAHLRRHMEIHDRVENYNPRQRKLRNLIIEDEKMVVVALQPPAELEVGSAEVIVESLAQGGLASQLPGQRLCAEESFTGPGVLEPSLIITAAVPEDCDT

[5] = target: T3, Zinc finger and BTB domain-containing protein 1 (Homo sapiens) (UniProt Q9Y2K1); conditions: OCI-Ly1, Compound concentration 1.0 uM
T3 sequence (whole entry): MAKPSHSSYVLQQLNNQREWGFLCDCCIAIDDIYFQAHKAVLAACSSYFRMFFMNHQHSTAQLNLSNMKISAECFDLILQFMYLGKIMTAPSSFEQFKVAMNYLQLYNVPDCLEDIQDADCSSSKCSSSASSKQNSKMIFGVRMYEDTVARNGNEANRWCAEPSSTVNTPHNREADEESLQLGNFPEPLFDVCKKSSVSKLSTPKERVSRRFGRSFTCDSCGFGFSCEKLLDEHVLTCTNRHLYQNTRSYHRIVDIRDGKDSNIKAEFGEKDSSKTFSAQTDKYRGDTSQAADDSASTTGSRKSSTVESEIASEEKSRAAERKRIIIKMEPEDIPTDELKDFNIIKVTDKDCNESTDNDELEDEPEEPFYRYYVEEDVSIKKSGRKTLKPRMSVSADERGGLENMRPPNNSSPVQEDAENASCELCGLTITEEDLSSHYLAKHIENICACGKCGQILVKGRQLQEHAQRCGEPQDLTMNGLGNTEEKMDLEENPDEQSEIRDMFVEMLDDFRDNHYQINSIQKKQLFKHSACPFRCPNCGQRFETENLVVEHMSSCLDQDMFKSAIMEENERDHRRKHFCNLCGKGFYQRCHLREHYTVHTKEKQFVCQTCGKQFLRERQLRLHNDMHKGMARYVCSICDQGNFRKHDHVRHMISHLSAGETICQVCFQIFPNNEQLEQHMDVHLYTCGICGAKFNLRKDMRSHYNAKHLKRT

[6] = target: Histamine H4 receptor (Homo sapiens) (UniProt Q9H3N8); conditions: Compound concentration 10.0 uM
[7] = target: T1, Zinc finger and BTB domain-containing protein 44 (Homo sapiens); conditions: SUD4, Compound concentration 1.0 uM; remark: listed apart in the source
[8] = target: Casein kinase II subunit alpha (Homo sapiens) (UniProt P68400); assay: CSNK2A1 SGC Tm panel (DSF); conditions: Compound concentration 20.0 uM
Sequence of Casein kinase II subunit alpha (Homo sapiens) (P68400 whole entry, looked up): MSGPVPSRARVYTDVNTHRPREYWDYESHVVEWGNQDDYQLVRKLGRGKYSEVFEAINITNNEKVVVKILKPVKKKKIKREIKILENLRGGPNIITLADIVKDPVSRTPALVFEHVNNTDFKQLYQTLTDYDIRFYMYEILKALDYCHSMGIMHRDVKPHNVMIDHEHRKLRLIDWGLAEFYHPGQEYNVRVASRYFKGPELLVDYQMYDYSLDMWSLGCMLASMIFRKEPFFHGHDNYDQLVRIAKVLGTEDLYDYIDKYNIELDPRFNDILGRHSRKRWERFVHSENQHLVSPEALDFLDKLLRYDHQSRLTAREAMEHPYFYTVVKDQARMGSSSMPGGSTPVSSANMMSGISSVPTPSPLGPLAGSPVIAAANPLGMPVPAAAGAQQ

[9] = target: Ephrin type-A receptor 4 (Homo sapiens) (UniProt P54764); assay: EPHA4 SGC Tm panel (DSF); conditions: Compound concentration 20.0 uM
Sequence of Ephrin type-A receptor 4 (Homo sapiens) (P54764 whole entry): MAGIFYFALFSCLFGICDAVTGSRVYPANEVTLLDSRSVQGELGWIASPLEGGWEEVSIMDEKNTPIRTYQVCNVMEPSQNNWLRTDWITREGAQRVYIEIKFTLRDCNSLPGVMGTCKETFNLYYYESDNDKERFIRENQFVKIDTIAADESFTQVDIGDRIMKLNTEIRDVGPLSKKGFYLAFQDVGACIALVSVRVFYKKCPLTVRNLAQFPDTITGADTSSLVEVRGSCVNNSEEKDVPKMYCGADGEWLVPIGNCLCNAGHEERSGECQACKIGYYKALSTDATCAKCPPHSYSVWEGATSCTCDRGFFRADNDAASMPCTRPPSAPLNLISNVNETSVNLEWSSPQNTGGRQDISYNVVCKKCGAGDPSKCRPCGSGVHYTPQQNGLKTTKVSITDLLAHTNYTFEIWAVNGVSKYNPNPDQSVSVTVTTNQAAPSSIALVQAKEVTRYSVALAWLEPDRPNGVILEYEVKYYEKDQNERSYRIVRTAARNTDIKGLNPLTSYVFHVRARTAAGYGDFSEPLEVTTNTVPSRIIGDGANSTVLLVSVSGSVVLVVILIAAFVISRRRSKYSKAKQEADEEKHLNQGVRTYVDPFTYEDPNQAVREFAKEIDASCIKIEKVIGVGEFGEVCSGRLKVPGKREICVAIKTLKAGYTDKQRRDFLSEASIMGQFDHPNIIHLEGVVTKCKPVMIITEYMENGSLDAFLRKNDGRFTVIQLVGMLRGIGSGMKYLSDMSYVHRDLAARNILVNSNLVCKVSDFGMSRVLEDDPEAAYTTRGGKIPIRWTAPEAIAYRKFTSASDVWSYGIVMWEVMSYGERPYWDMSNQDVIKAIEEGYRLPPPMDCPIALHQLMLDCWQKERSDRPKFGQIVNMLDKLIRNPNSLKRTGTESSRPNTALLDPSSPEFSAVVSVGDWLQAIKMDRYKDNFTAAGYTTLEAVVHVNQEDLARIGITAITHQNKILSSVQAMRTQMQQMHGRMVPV

[10] = target: Fibroblast growth factor receptor 3 (Homo sapiens) (UniProt P22607); assay: FGFR3 SGC Tm panel (DSF); conditions: Compound concentration 20.0 uM
Sequence of Fibroblast growth factor receptor 3 (Homo sapiens) (P22607 23-806 limits assumed): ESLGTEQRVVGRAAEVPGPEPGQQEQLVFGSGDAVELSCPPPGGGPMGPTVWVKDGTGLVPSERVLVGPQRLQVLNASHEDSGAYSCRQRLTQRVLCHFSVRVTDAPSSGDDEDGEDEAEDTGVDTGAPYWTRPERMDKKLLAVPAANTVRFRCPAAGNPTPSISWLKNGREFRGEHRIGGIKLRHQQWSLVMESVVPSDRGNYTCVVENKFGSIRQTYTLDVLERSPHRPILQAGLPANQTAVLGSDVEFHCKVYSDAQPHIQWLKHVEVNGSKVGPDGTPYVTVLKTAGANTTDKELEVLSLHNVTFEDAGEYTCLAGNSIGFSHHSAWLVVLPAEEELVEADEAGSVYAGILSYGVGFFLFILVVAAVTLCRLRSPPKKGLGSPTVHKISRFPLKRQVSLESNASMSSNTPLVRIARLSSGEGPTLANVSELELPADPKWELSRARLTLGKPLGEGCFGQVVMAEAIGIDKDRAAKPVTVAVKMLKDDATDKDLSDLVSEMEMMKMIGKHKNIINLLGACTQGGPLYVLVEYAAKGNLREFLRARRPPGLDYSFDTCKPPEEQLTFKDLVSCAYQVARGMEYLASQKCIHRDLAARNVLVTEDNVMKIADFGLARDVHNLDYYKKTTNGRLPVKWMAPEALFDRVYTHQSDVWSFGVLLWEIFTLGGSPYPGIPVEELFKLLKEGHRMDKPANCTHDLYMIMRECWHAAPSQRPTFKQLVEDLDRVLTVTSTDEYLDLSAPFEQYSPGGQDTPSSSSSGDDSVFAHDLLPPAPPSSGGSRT

Peregrin (Homo sapiens) = Peregrin (Homo sapiens) (UniProt P55201); assay: BRPF1 SGC Tm panel (DSF); conditions: Compound concentration 20.0 uM
[11] = target: Serine/threonine-protein kinase WNK1 (Homo sapiens) (UniProt Q9H4A3); assay: WNK1 SGC Tm panel (DSF); conditions: Compound concentration 20.0 uM
Sequence of Serine/threonine-protein kinase WNK1 (Homo sapiens) (Q9H4A3 whole entry, looked up): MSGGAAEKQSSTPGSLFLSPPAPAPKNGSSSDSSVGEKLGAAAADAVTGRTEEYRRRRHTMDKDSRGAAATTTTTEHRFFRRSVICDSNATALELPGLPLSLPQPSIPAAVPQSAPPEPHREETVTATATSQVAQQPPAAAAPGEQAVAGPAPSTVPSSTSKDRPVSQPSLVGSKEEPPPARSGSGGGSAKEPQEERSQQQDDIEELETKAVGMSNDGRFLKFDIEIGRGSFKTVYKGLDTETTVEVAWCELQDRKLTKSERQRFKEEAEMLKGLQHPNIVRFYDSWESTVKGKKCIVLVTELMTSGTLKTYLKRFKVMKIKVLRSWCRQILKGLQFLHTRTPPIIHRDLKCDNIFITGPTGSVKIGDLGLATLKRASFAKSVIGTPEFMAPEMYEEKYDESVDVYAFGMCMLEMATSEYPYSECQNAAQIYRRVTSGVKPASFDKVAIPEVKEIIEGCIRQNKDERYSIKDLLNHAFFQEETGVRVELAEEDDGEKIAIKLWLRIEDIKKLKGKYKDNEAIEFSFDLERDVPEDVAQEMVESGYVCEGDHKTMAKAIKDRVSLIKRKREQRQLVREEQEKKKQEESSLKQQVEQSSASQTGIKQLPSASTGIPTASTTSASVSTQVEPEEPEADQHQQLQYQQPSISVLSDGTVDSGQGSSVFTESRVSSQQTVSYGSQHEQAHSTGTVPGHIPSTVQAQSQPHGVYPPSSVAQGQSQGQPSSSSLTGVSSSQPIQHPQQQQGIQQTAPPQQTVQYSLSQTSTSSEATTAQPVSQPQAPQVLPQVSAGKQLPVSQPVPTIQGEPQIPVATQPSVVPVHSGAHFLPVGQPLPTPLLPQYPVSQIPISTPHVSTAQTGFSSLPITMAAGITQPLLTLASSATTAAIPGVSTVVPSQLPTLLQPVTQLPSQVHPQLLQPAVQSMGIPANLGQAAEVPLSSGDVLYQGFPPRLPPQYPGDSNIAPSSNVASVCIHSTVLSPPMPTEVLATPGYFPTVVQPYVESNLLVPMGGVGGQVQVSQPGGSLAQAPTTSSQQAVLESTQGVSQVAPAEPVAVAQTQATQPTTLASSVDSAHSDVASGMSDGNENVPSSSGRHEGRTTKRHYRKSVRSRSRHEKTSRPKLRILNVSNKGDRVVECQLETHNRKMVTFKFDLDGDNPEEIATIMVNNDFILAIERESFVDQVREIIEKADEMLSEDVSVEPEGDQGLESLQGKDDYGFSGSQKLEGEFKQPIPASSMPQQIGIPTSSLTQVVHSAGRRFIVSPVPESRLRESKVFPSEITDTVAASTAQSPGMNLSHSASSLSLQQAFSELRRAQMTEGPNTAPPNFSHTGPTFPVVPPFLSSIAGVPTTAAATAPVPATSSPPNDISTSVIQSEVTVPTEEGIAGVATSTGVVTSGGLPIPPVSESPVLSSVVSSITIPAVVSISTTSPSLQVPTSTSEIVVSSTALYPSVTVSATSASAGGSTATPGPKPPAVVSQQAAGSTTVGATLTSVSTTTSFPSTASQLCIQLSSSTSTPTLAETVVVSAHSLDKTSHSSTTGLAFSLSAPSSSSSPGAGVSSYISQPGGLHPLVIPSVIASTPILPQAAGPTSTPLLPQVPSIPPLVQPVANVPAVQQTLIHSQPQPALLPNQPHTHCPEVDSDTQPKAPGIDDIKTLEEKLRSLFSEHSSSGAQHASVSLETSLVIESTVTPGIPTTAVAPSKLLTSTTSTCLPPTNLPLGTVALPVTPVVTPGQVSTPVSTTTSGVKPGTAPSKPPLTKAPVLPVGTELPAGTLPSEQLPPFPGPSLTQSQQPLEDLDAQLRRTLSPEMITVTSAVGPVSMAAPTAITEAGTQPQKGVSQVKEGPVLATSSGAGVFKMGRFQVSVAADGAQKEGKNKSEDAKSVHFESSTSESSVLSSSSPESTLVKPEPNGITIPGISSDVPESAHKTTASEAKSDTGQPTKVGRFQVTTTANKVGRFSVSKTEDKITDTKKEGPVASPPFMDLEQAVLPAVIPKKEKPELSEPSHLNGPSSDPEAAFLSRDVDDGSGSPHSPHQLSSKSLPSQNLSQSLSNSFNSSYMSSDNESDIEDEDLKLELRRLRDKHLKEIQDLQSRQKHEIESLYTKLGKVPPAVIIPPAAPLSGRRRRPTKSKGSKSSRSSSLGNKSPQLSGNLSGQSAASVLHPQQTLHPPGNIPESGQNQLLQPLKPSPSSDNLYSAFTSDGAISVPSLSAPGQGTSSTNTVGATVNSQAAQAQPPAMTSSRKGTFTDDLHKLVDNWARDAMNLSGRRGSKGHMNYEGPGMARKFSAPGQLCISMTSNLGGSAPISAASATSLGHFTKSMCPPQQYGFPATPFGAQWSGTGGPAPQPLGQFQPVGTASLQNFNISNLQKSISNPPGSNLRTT

LogFC [1]: -0.235
Tm [2]: 48 °C
Tm [3]: 46 °C
LogFC [4]: 0.0324
LogFC [5]: -0.0612
inhibition [6]: -0.79%
LogFC [7]: -0.00843
Tm [8]: 44 °C
Tm [9]: 54 °C
Tm [10]: 42 °C
Tm (Peregrin (Homo sapiens)): 44 °C
Tm [11]: 51 °C
Compound: C[C@@H]1CN(c2ncc(Cl)c(Nc3ccc4c(c3)n(CCC(C)(C)O)c(=O)n4C)n2)C[C@H](C)C1(F)F

Reference: ChEMBL document CHEMBL5058646 (2022)
